Reference: patent US9440957B2, “Compounds and compositions for modulating EGFR Activity” (Novartis AG, priority 2012, dated 2016)
Read-outs that look alike come from different tables or passages of the source.

Key:
[1] = target: human EGFR L858R/T790M (NIH/3T3 cells) (Homo sapiens, UniProt P00533, L858R/T790M); experiment: EGFR target modulation in engineered NIH/3T3 cell lines (phospho-EGFR Y1068 AlphaLISA), EGFR L858R/T790M; type: cell-based; conditions: engineered NIH/3T3 cells, read-out: NIH3T3 IC50 (μM) EGFR (L858R/T790M)
Method in brief: (§1)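 Engineered NIH/3T3 cells expressing EGFR variants treated 3 h at 37 °C with 12-point 1:3 compound series (top stock 10 μM); only WT cells stimulated with 50 ng/ml EGF for 5 min before lysis. Phospho-Y1068 measured by AlphaLISA with total-EGFR antibody; IC50 from non-linear fitting.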

HCC827 (Del E746-A750) = HCC827 (Del E746-A750) (Homo sapiens, UniProt P00533, DEL746-750); experiment: EGFR target modulation in HCC827 cell line (phospho-EGFR Y1173 ELISA); type: cell-based
Procedure: EGFR Target Modulation in H1975, H3255 and HCC827 Cell Lines Tissue Culture. Cells were maintained in 10% FBS/RPMI supplemented with 100 μg/ml Penicillin/Streptomycin (Hyclone #SH30236.01). […] The cells were allowed to incubate overnight in a 37° C., 5% CO2 humidified tissue culture incubator. […] The serial diluted compounds were transferred to the plate containing cells by using a 50 nl Pin Head device (Perkin Elmer) and the cells were placed back in the incubator for 3 hours. Phospho-EGFR ([…]) Target Modulation Assay. The media was reduced to 20 ul using a Bio-Tek ELx 405 SelectTM plate washer. […] The plates were shaken at 4° C. for 20 minutes. An aliquot of 25 ul from each well was transferred to pEGFR(Y1173) ELISA plates for analysis. Phospho-EGFR ([…]) ELISA. Solid white high-binding ELISA plates (Greiner #781074) were coated with 5 ug/ml anti-EGFR capture antibody (R&D Systems #AF231) overnight in 50 mM carbonate/bicarbonate pH 9.5 buffer. Plates were blocked with 1% BSA (Sigma #A7030) in PBS for 1 hour at room temperature. Wash steps were carried out with a Bio-Tek ELx405 SelectTM using 4 cycles of 100 ul TBS-T (20 mM Tris, 137 mM NaCl, 0.05% Tween-20) per well. […] Lysis was allowed to occur for 20 minutes on ice. A 25 ul aliquot was added to each well of the blocked ELISA plate and incubated overnight at 4° C. with gentle shaking. […] After washing, 1:2,000 anti-rabbit-HRP (Cell Signaling #7074) in 0.2% BSA/TBS-T was added and incubated for 1 hour at room temperature. Chemiluminescent detection was carried out with SuperSignal ELISA Pico substrate (ThermoScientific #37069). Signal was read on EnVision plate reader using built-in UltraLUM setting. Data Analysis. Control cells treated with EGF were set to 100% maximum response. […] With these parameters, the IC50's for each compound in each cell line was calculated using non-linear curve fitting analysis.

[2] = target: human EGFR L858R (NIH/3T3 cells) (Homo sapiens, UniProt P00533, L858R); experiment: EGFR target modulation in engineered NIH/3T3 cell lines (phospho-EGFR Y1068 AlphaLISA), EGFR L858R; type: cell-based; conditions: engineered NIH/3T3 cells, read-out: NIH3T3 IC50 (μM) EGFR (L858R)
Method in brief: as §1

H3255 (EGFR L858R) = H3255 (EGFR L858R) (Homo sapiens, UniProt P00533, L858R); experiment: EGFR target modulation in H3255 cell line (phospho-EGFR Y1173 ELISA); type: cell-based
Method in brief: (§2)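 Readout: luminescent pY1173-EGFR sandwich ELISA on cell lysates. Treatment: compound, 3 h, 37 °C.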

H1975 (EGFR L858/T790M) = H1975 (EGFR L858/T790M) (Homo sapiens, UniProt P00533, L858R/T790M); experiment: EGFR target modulation in H1975 cell line (phospho-EGFR Y1173 ELISA); type: cell-based
Method in brief: as §2

EGFR(L858R/T790M) = target: T1, EGFR(L858R/T790M) (Homo sapiens, UniProt P00533, L858R/T790M); experiment: EGFR biochemical assay (HTRF), IC50 determinations
T1 construct: purchased from Carna (GST-a.a. 669-1210)
Method in brief: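 HTRF kinase reaction with biotin-TK peptide at room temperature, quenched with EDTA at 60 min and detected with PT66K/SAXL after 1 h. Without preincubation, enzyme starts the reaction with compound, ATP and peptide present. With preincubation, compound, enzyme and peptide sit at room temperature for a set time before ATP is added.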

[3] = target: human EGFR WT (NIH/3T3 cells, EGF-induced) (Homo sapiens, UniProt P00533); experiment: EGFR target modulation in engineered NIH/3T3 cell lines (phospho-EGFR Y1068 AlphaLISA), EGFR WT; type: cell-based; conditions: engineered NIH/3T3 cells, read-out: NIH3T3 IC50 (μM) EGFR (WT)
Method in brief: as §1

HEKn (EGFR WT) = HEKn (EGFR WT) (Homo sapiens, UniProt P00533); experiment: EGFR target modulation in HEKn (EGFR-WT) cell line (phospho-EGFR Y1173 ELISA); type: cell-based; conditions: value outside parentheses
Method in brief: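 Primary neonatal human keratinocytes (EGFR WT) were exposed to serially diluted compounds for 3 h, then lysed on ice. Phospho-EGFR Y1173 was measured by chemiluminescent sandwich ELISA using anti-EGFR capture.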

[4] = EGFR (L858R/T790M) with 90 min pre-incubation, read-out: IC50 (μM) Column B
[5] = EGFR (L858R/T790M) with no pre-incubation, read-out: IC50 (μM) Column A

HCC827 (Del E746-A750), sequence (P00533 with tags, fused parts or gaps DEL746-750): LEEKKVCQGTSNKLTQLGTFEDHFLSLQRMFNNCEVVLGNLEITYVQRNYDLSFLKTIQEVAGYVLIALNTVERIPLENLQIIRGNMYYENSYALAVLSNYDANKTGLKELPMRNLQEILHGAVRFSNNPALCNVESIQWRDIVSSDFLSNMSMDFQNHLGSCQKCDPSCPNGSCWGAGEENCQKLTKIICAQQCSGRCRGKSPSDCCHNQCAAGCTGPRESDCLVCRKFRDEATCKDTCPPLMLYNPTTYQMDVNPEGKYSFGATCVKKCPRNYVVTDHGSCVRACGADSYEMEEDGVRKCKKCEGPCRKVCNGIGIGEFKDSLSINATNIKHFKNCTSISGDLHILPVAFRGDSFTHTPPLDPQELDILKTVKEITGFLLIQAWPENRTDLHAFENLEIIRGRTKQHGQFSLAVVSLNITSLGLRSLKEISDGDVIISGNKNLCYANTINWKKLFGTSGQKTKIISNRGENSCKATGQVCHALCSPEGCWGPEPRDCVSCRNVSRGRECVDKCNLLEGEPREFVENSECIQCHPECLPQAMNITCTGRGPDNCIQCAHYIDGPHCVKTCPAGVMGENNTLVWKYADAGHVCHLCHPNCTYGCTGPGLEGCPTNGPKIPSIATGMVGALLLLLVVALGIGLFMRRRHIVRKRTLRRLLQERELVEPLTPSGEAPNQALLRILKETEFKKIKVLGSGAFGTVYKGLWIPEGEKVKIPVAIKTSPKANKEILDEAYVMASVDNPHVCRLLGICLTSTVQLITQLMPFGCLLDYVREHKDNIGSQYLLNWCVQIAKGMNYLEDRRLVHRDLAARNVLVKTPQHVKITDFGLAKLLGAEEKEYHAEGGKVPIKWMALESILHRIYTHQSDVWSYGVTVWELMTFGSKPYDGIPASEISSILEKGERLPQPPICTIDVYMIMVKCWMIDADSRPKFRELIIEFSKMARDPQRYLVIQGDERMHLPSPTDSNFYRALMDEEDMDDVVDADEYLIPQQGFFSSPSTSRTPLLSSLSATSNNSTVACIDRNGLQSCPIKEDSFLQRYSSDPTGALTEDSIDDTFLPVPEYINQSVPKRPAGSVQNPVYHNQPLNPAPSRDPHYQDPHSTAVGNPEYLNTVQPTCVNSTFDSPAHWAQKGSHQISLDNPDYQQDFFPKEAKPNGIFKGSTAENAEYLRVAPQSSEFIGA
T1 sequence (P00533 669-1210 T790M/L858R): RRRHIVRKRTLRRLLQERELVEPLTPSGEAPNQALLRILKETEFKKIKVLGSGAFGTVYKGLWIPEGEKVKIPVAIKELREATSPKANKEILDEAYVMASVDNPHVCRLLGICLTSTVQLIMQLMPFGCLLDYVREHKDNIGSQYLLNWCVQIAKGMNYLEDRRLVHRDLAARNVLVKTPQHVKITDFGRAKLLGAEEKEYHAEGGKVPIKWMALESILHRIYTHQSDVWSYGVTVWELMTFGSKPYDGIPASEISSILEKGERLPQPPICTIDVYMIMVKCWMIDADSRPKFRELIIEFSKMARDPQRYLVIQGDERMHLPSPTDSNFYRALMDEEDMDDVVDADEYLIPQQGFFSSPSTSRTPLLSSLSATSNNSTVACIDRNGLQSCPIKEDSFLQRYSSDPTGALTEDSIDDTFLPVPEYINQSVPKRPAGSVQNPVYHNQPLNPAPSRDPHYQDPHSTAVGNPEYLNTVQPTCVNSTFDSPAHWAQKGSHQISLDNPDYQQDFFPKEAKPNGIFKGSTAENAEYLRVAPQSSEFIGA
human EGFR L858R/T790M (NIH/3T3 cells), sequence (P00533 25-1210 T790M/L858R): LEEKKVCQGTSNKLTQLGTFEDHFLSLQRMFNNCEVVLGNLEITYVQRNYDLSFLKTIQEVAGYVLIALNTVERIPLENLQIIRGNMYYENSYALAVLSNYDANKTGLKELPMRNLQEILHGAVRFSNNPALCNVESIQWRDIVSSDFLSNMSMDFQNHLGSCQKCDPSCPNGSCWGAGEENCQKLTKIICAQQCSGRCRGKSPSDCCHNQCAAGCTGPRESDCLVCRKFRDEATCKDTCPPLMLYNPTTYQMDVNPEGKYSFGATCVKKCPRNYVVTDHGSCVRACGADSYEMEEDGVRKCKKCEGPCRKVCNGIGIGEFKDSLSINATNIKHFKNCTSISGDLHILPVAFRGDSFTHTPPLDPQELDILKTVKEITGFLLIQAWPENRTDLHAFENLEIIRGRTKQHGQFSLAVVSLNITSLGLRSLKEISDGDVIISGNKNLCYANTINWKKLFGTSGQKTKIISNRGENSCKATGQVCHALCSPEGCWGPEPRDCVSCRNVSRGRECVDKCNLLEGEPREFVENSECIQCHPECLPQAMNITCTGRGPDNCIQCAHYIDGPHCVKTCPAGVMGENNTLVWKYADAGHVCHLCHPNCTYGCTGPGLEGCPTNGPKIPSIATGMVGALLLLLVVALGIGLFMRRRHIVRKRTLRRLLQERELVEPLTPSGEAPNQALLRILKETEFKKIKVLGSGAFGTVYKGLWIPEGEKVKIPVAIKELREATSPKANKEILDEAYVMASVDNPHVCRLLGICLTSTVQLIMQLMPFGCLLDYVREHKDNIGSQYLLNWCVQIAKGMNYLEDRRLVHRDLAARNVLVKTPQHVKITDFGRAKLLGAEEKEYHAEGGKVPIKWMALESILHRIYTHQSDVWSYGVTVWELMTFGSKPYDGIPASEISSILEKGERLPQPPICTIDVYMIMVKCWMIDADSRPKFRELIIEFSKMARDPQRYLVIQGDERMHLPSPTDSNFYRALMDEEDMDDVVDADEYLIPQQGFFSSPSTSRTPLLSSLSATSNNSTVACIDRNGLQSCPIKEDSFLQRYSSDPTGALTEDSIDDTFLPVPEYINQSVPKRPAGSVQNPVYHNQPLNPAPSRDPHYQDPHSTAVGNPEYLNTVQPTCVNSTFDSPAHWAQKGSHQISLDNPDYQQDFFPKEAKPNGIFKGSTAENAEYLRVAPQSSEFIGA
H1975 (EGFR L858/T790M), sequence (P00533 25-1210 T790M/L858R): as above

C=CC(=O)N1CCC[C@@H](n2c(NC(=O)c3cccc(C(F)(F)F)c3)nc3cc(CN4CCOCC4)ccc32)C1 [Example 17-112]
IC50 [1]: 0.006 µM
IC50 (HCC827 (Del E746-A750)): 135 nM
IC50 [2]: 0.04 µM
IC50 (H3255 (EGFR L858R)): 155 nM
IC50 (H1975 (EGFR L858/T790M)): 15 nM
IC50 (EGFR(L858R/T790M); [4]): 0.003 µM
IC50 (EGFR(L858R/T790M); [5]): 0.04 µM
IC50 [3]: > 10 µM
IC50 (HEKn (EGFR WT)): > 10000 nM

C=CC(=O)N1CCCCC(n2c(NC(=O)c3cccc(C(F)(F)F)c3)nc3cc(C)ccc32)C1 (stereo not drawn) [Example 17-1]
IC50 [1]: 0.011 µM
IC50 (HCC827 (Del E746-A750)): 14 nM
IC50 [2]: 0.081 µM
IC50 (H3255 (EGFR L858R)): 33 nM
IC50 (H1975 (EGFR L858/T790M)): 5 nM
IC50 (EGFR(L858R/T790M); [4]): < 0.001 µM
IC50 (EGFR(L858R/T790M); [5]): 0.012 µM
IC50 [3]: > 10 µM
IC50 (HEKn (EGFR WT)): 730 nM

C=CC(=O)N1CCCC[C@@H](n2c(NC(=O)c3ccnc(C)c3)nc3cc(CN4CCCCC4)cc(C)c32)C1 [Example 17-144]
IC50 [1]: < 0.001 µM
IC50 (HCC827 (Del E746-A750)): < 1 nM
IC50 [2]: < 0.001 µM
IC50 (H3255 (EGFR L858R)): 1 nM
IC50 (H1975 (EGFR L858/T790M)): < 1 nM
IC50 (EGFR(L858R/T790M); [4]): < 0.001 µM
IC50 (EGFR(L858R/T790M); [5]): 0.002 µM
IC50 [3]: 0.029 µM
IC50 (HEKn (EGFR WT)): 72 nM

CO[C@@H]1CCN(C/C=C/C(=O)N2CCCC[C@@H](n3c(NC(=O)c4ccnc(C)c4)nc4cccc(Cl)c43)C2)C1 [Example 3-4]
IC50 [1]: 0.005 µM
IC50 (HCC827 (Del E746-A750)): < 1 nM
IC50 [2]: 0.003 µM
IC50 (H3255 (EGFR L858R)): 7 nM
IC50 (H1975 (EGFR L858/T790M)): 6 nM
IC50 (EGFR(L858R/T790M); [4]): < 0.001 µM
IC50 (EGFR(L858R/T790M); [5]): 0.005 µM
IC50 [3]: 0.058 µM
IC50 (HEKn (EGFR WT)): 320 nM

C=CC(=O)N1CCCC[C@@H](n2c(NC(=O)c3ccnc(C)c3)nc3cc(CN4CCS(=O)(=O)CC4)cc(C)c32)C1 [Example 17-155]
IC50 [1]: 0.002 µM
IC50 (HCC827 (Del E746-A750)): < 1 nM
IC50 [2]: 0.002 µM
IC50 (H3255 (EGFR L858R)): 2 nM
IC50 (H1975 (EGFR L858/T790M)): 2 nM
IC50 (EGFR(L858R/T790M); [4]): < 0.001 µM
IC50 (EGFR(L858R/T790M); [5]): 0.002 µM
IC50 [3]: 0.065 µM
IC50 (HEKn (EGFR WT)): 61 nM

Cc1cccc2nc(NC(=O)c3ccnc(OC(F)F)c3)n([C@@H]3CCCCN(C(=O)/C=C/CN(C)C)C3)c12 [Example 17-103]
IC50 [1]: < 0.001 µM
IC50 (HCC827 (Del E746-A750)): < 1 nM
IC50 [2]: < 0.001 µM
IC50 (H3255 (EGFR L858R)): 2 nM
IC50 (H1975 (EGFR L858/T790M)): 1 nM
IC50 (EGFR(L858R/T790M); [4]): < 0.001 µM
IC50 (EGFR(L858R/T790M); [5]): < 0.001 µM
IC50 [3]: 0.019 µM
IC50 (HEKn (EGFR WT)): 98 nM

C=CC(=O)N1CCCC[C@@H](n2c(NC(=O)c3ccnc(C)c3)nc3cc(CN4CCC4)cc(C)c32)C1 [Example 17-145]
IC50 [1]: 0.001 µM
IC50 (HCC827 (Del E746-A750)): < 1 nM
IC50 [2]: < 0.001 µM
IC50 (H3255 (EGFR L858R)): 2 nM
IC50 (H1975 (EGFR L858/T790M)): 1 nM
IC50 (EGFR(L858R/T790M); [4]): < 0.001 µM
IC50 (EGFR(L858R/T790M); [5]): 0.001 µM
IC50 [3]: 0.026 µM
IC50 (HEKn (EGFR WT)): 95 nM

C=CC(=O)N1CCC[C@@H](n2c(NC(=O)c3cccc(C(F)(F)F)c3)nc3cc(COC)ccc32)C1 [Example 17-122]
IC50 [1]: 0.02 µM
IC50 (HCC827 (Del E746-A750)): 90 nM
IC50 [2]: 0.176 µM
IC50 (H3255 (EGFR L858R)): 390 nM
IC50 (H1975 (EGFR L858/T790M)): 16 nM
IC50 (EGFR(L858R/T790M); [4]): < 0.001 µM
IC50 (EGFR(L858R/T790M); [5]): 0.062 µM
IC50 [3]: > 10 µM
IC50 (HEKn (EGFR WT)): > 10000 nM

Cc1cc(C(=O)Nc2nc3cccc(Cl)c3n2[C@@H]2CCCCN(C(=O)/C=C/CN3CC[C@@H](O)C3)C2)ccn1 [Example 3-6]
IC50 [1]: 0.032 µM
IC50 (HCC827 (Del E746-A750)): 18 nM
IC50 [2]: 0.018 µM
IC50 (H3255 (EGFR L858R)): 22 nM
IC50 (H1975 (EGFR L858/T790M)): 25 nM
IC50 (EGFR(L858R/T790M); [4]): < 0.001 µM
IC50 (EGFR(L858R/T790M); [5]): 0.01 µM
IC50 [3]: 0.114 µM
IC50 (HEKn (EGFR WT)): 1250 nM

Cc1cc(C(=O)Nc2nc3cccc(Cl)c3n2[C@@H]2CCCCN(C(=O)/C=C/CN3CCCC3)C2)ccn1 [Example 1, (R,E)-N-(7-chloro-1-(1-(4-(pyrrolidin-1-yl)but-2-enoyl)azepan-3-yl)-1H-benzo[d]imidazol-2-yl)-2-methylisonicotinamide]
IC50 [1]: 0.004 µM
IC50 (HCC827 (Del E746-A750)): 2 nM
IC50 [2]: 0.004 µM
IC50 (H3255 (EGFR L858R)): 12 nM
IC50 (H1975 (EGFR L858/T790M)): 8 nM
IC50 (EGFR(L858R/T790M); [4]): < 0.001 µM
IC50 (EGFR(L858R/T790M); [5]): 0.007 µM
IC50 [3]: 0.152 µM
IC50 (HEKn (EGFR WT)): 450 nM

Cc1cc(C(=O)Nc2nc3cccc(Cl)c3n2[C@@H]2CCCCN(C(=O)/C=C/CN3CC(F)(F)C3)C2)ccn1 [Example 3-15]
IC50 [1]: 0.148 µM
IC50 (HCC827 (Del E746-A750)): 40 nM
IC50 [2]: 0.111 µM
IC50 (H3255 (EGFR L858R)): 90 nM
IC50 (H1975 (EGFR L858/T790M)): 86 nM
IC50 (EGFR(L858R/T790M); [4]): 0.005 µM
IC50 (EGFR(L858R/T790M); [5]): 0.084 µM
IC50 [3]: 7.3 µM
IC50 (HEKn (EGFR WT)): 4500 nM

Cc1cc(C(=O)Nc2nc3cccc(Cl)c3n2[C@@H]2CCCCN(C(=O)/C=C/CN(C)C)C2)cc(C)n1 [Example 6, (R,E)-N-(7-chloro-1-(1-(4-(dimethylamino)but-2-enoyl)azepan-3-yl)-1H-benzo[d]imidazol-2-yl)-2,6-dimethylisonicotinamide]
IC50 [1]: 0.002 µM
IC50 (HCC827 (Del E746-A750)): 7 nM
IC50 [2]: 0.004 µM
IC50 (H3255 (EGFR L858R)): 34 nM
IC50 (H1975 (EGFR L858/T790M)): 16 nM
IC50 (EGFR(L858R/T790M); [4]): < 0.001 µM
IC50 (EGFR(L858R/T790M); [5]): 0.01 µM
IC50 [3]: 0.34 µM
IC50 (HEKn (EGFR WT)): 1520 nM
